Results from patent publication US7569563B2, “Substituted quinolones II” (AiCuris GmbH & Co. HK, priority 2005, dated 2009).
Structures can show the parent of a compound that is named as a salt.

Experiments:
HCMV = experiment: Anti-HCMV (anti-human cytomegalovirus) cytopathogenicity test; assay type: cell-based; settings: for EC50: Human betaherpesvirus 5, 144 h, concentration inhibiting CPE by 50% vs untreated virus control, HCMV-infected NHDF cells, M.O.I. 0.001-0.002, 6 days; for SI HCMV (selectivity index): SI = CC50 (NHDF)/EC50 (HCMV)
Method: Anti-HCMV (Anti-Human Cytomegalovirus) Cytopathogenicity Tests The test compounds are employed as 50 millimolar (mM) solutions in dimethyl sulfoxide (DMSO). Ganciclovir®, Foscamet® and Cidofovir® are used as reference compounds. After the addition of in each case 2 μl of the 50, 5, 0.5 and 0.05 mM DMSO stock solutions to 98 μl portions of cell culture medium in row […] for duplicate determinations, 1:2 dilutions are carried out with 50 μl portions of medium up to row 1 l of the 96-well plate. The wells in rows 1 and 12 each contain 50 μl of medium. 150 μl of a suspension of 1×10^4 cells (human prepuce fibroblasts [NHDF]) are then pipetted into each of the wells (row I=cell control) and, in rows 2-12, a mixture of HCMV-infected and uninfected NHDF cells (M.O.I.=0.001-0.002), i.e. 1-2 infected cells per 1000 uninfected cells. Row 12 (without substance) serves as virus control. The final test concentrations are 250-0.0005 μM. The plates are incubated at 37° C./5% CO2 for 6 days, i.e. until all the cells are infected in the virus controls (100% cytopathogenic effect [CPE]). The wells are then fixed and stained by the addition of a mixture of formalin and Giemsa's dye (30 minutes), washed with double-distilled water and dried in a drying oven at 50° C. The plates are then assessed visually using an overhead microscope (plaque multiplier from Technomara). The following data can be acquired from the test plates: EC50 (HCMV)=substance concentration in μM which inhibits the CPE (cytopathic effect) by 50% compared with the untreated virus control; SI (selectivity index)=CC50 (NHDF)/EC50 (HCMV).

[1] = Cytostatic effects on NHDF cells in the anti-HCMV cytopathogenicity test; assay type: cell-based; settings: human, human prepuce fibroblasts (NHDF cells); substance concentration at which no visible cytostatic effects on NHDF cells are evident vs untreated cell control; 6 days incubation
Method: Anti-HCMV (Anti-Human Cytomegalovirus) Cytopathogenicity Tests The test compounds are employed as 50 millimolar (mM) solutions in dimethyl sulfoxide (DMSO). Ganciclovir®, Foscamet® and Cidofovir® are used as reference compounds. After the addition of in each case 2 μl of the 50, 5, 0.5 and 0.05 mM DMSO stock solutions to 98 μl portions of cell culture medium in row […] for duplicate determinations, 1:2 dilutions are carried out with 50 μl portions of medium up to row 1 l of the 96-well plate. The wells in rows 1 and 12 each contain 50 μl of medium. 150 μl of a suspension of 1×10^4 cells (human prepuce fibroblasts [NHDF]) are then pipetted into each of the wells (row I=cell control) and, in rows 2-12, a mixture of HCMV-infected and uninfected NHDF cells (M.O.I.=0.001-0.002), i.e. 1-2 infected cells per 1000 uninfected cells. Row 12 (without substance) serves as virus control. The final test concentrations are 250-0.0005 μM. The plates are incubated at 37° C./5% CO2 for 6 days, i.e. until all the cells are infected in the virus controls (100% cytopathogenic effect [CPE]). The wells are then fixed and stained by the addition of a mixture of formalin and Giemsa's dye (30 minutes), washed with double-distilled water and dried in a drying oven at 50° C. The plates are then assessed visually using an overhead microscope (plaque multiplier from Technomara). The following data can be acquired from the test plates: CC50 (NHDF)=substance concentration in μM at which no visible cytostatic effects on the cells are evident compared with the untreated cell control;

SMILES	EC50 (HCMV)	SI HCMV (selectivity index) (HCMV)	CC50 at 6 days [1]
CCOC(=O)CN1[C@H](C)CN(c2c(F)cc3c(=O)c(C(=O)NCc4ccc(Cl)cc4Cl)cn(CC(F)(F)F)c3c2OC)C[C@@H]1C [Example 1, Ethyl{(2RS,6SR)-4-[3-{[(2,4-dichlorobenzyl)amino]carbonyl}-6-fluoro-8-methoxy-4-oxo-1-(2,2,2-trifluoroethyl)-1,4-dihydroquinolin-7-yl]-2,6-dimethylpiperazin-1-yl}ethanoate hydroformate]	0.019 µM	579	11 µM
COc1c(N2C[C@@H](C)N(CC(=O)O)[C@@H](C)C2)c(F)cc2c(=O)c(C(=O)NCc3ccc(Cl)cc3Cl)cn(CC(F)(F)F)c12 [Example 28, {(2RS,6SR)-4-[3-{[(2,4-Dichlorobenzyl)amino]carbonyl}-6-fluoro-8-methoxy-4-oxo-1-(2,2,2-trifluoroethyl)-1,4-dihydroquinolin-7-yl]-2,6-dimethylpiperazin-1-yl}ethanoic acid hydroformate]	0.0023 µM	8032	18 µM
COc1c(N2C[C@@H](C)N(CC(=O)O)[C@@H](C)C2)c(F)cc2c(=O)c(C(=O)NCc3ccc(Cl)cc3Cl)cn(C3CC3)c12 [Example 29, 4-[3-{1-Cyclopropyl-[(2,4-dichlorobenzyl)amino]carbonyl}-1-fluoro-8-methoxy-4-oxo-1,4-dihydroquinolin-7-yl]-(2RS,6SR)-2,6-dimethylpiperazin-1-yl}ethanoic acid hydrochloride]	0.01 µM	4700	47 µM
COc1c(N2C[C@@H](C)N(CC(=O)O)[C@@H](C)C2)c(F)cc2c(=O)c(C(=O)NCc3ccc(Cl)cc3Cl)cn(CCF)c12 [Example 30]	0.008 µM	5875	47 µM
COc1c(N2C[C@@H](C)N(CC(=O)O)[C@@H](C)C2)c(F)cc2c(=O)c(C(=O)NCc3ccc(Cl)cc3C)cn([C@H]3C[C@H]3F)c12 [Example 36]	0.005 µM	6402	24 µM
COc1c(N2C[C@@H](C)N(C(C)C(=O)O)[C@@H](C)C2)c(F)cc2c(=O)c(C(=O)NCc3ccc(Cl)cc3Cl)cn(C3CC3)c12 (stereo partly drawn) [Example 49]	0.018 µM	5222	94 µM
